Measured values from the NIST ThermoML archive (doi:10.1016/j.fluid.2015.07.055).
Numbers after ± are expanded uncertainties.

What was measured:
[1] = Molar enthalpy of transition or fusion; conditions: Crystal; DSC
[2] = Crystal; DTA

SMILES: CCC(C)(C)C(=O)O[C@H]1C[C@@H](C)C=C2C=C[C@H](C)[C@H](CC[C@@H]3C[C@@H](O)CC(=O)O3)[C@H]21 [(+)-Simvastatin]
- Molar enthalpy of transition or fusion [1]: 7.2 ± 0.335 kcal/mol
- Normal melting temperature [2]: 142.0 ± 1.1 °C
